Test results from article PMC5782818 (Bioorganic & medicinal chemistry letters, 2017).

What was measured:
[1] = molecular target: T1, VMAT2 (Rattus norvegicus, UniProt Q01827); conditions: cited from earlier work
[2] = cited from earlier work
[3] = test system: METH self-administration; conditions: rats; cited from earlier work
[4] = test system: sucrose-maintained responding; conditions: rats; cited from earlier work
[5] = molecular target: T1, VMAT2; test: Vesicular [^3H]DA uptake assay; type: biochemical

T1 sequence (Q01827 whole entry): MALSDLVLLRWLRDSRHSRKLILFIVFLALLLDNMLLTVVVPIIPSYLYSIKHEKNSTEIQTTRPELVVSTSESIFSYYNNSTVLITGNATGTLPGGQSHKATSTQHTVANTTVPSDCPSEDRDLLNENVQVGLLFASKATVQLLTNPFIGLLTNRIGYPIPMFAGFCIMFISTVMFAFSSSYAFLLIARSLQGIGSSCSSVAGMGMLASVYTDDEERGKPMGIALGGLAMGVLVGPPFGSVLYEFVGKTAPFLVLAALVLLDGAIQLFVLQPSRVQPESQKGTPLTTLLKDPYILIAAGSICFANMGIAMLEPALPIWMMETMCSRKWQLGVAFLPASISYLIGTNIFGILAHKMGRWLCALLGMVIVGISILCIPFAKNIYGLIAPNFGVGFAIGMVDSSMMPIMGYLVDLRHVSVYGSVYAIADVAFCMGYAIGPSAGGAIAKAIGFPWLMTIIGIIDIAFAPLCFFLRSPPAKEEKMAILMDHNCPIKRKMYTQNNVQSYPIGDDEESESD

Question: For `CN1[C@@H](CC(=O)c2ccccc2)CCC[C@H]1C[C@H](O)c1ccccc1` [lobeline], which “effect on DA uptake into synaptic vesicles via VMAT2” value [1] is on record?
Answer: inhibit

Question: And the “side-effects in clinical trials” value [2]?
Answer: bitter taste and nausea

Question: For `CN1[C@@H](CCc2ccccc2)CCC[C@H]1CCc1ccccc1` [lobelane], which “effect on METH self-administration” value [3] is on record?
Answer: dose-dependently decreased

Question: And the “effect on sucrose-maintained responding” value [4]?
Answer: without decreasing

Question: For `Cl.Cl.FCCOc1ccc(CCN2CCN(CCc3ccccc3Cl)CC2)cc1` [Compound 15f, 1-(2-chlorophenethyl)-4-(4-(2-fluoroethoxy)phenethyl)piperazine], which “fold less potent at VMAT2 than 15d” value [5] is on record?
Answer: 32 fold
